Values quoted from earlier work as cited in patent US20100092397A1, “Method For Treatment of COPD and Other Pulmonary Diseases” (Activaero GmbH, priority 2008, published 2010).

Assays:
[1] = systemic (oral or i.v.) administration; levels above this range result in side effects
[2] = test system: subjects with moderate-severe COPD; conditions: nebulized ADC4022 12.5 mg twice daily plus budesonide 1 mg twice daily for 4 weeks, versus placebo plus budesonide

| Structure (SMILES) | recommended effective range, plasma level [1] [mg/L] | lung function [2] |
| --- | --- | --- |
| Cn1c(=O)c2[nH]cnc2n(C)c1=O [Theophylline, theophylline] | 10 to 20 | – |
| Cn1c(=O)c2[nH]cnc2n(C)c1=O [ADC4022] | – | stable |
